Patent publication US11767344B2, “Pharmaceutically acceptable salts of polypeptides and methods of inhibiting the interaction between psd-95 and n-methyl-d-aspartic acid receptor (nmdar)” (BIOCELLS (BEIJING) BIOTECH CO., LTD., priority 2017, dated 2023)
Entries after “also recorded” stand apart in the source; their conditions may differ.

Tests used:
PC12 cells = settings: 5 μM, 24 hours
PDZ1/2 domain [1] = molecular target: T1, PDZ1/2 domain (Homo sapiens, UniProt P78352)
PDZ1/2 domain [2] = molecular target: T1, PDZ1/2 domain; settings: His beads, SDS-PAGE of eluate, FIG. 1

T1 sequence (P78352 61-249 limits assumed): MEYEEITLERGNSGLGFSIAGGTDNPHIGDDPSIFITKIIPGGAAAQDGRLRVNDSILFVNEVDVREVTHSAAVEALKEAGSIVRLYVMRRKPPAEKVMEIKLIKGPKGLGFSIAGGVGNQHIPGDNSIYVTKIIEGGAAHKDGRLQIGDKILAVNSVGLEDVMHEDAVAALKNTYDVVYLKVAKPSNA

SMILES	cytotoxicity (cell viability) (PC12 cells)	interaction with the PDZ1/2 domain as compared with control chimeric peptide NA-1 (PDZ1/2 domain [1])	binding to PDZ1/2 domain in pull-down assay (PDZ1/2 domain [2])
CC[C@H](C)[C@H](NC(=O)[C@H](CCC(=O)O)NC(=O)[C@@H](NC(=O)[C@H](CC(=O)O)NC(=O)[C@H](CC(C)C)NC(=O)[C@H](CC(C)C)NC(=O)[C@H](CCCCN)NC(=O)[C@H](CCC(=O)O)NC(=O)[C@H](Cc1ccc(O)cc1)NC(=O)[C@H](CCCNC(=N)N)NC(=O)[C@H](CCCNC(=N)N)NC(=O)[C@H](CCCNC(=N)N)NC(=O)[C@H](CCC(N)=O)NC(=O)[C@H](CCCNC(=N)N)NC(=O)[C@H](CCCNC(=N)N)NC(=O)[C@H](CCCCN)NC(=O)[C@H](CCCCN)NC(=O)[C@H](CCCNC(=N)N)NC(=O)CNC(=O)[C@@H](N)Cc1ccc(O)cc1)[C@@H](C)O)C(=O)O [P5-Ac]	no significant cytotoxicity		
CC[C@H](C)[C@H](NC(=O)[C@H](CCC(=O)O)NC(=O)[C@@H](NC(=O)[C@H](CC(=O)O)NC(=O)[C@H](CC(C)C)NC(=O)[C@H](CC(C)C)NC(=O)[C@H](CCCCN)NC(=O)[C@H](CCC(=O)O)NC(=O)[C@H](Cc1ccc(O)cc1)NC(=O)[C@H](CCCNC(=N)N)NC(=O)[C@H](CCCNC(=N)N)NC(=O)[C@H](CCCNC(=N)N)NC(=O)[C@H](CCC(N)=O)NC(=O)[C@H](CCCNC(=N)N)NC(=O)[C@H](CCCNC(=N)N)NC(=O)[C@H](CCCCN)NC(=O)[C@H](CCCCN)NC(=O)[C@H](CCCNC(=N)N)NC(=O)CNC(=O)[C@@H](N)Cc1ccc(O)cc1)[C@@H](C)O)C(=O)O [P5]		interacted more strongly	can bind to the PDZ1/2 domain; also recorded: capable of binding to PDZ1/2 domain
